Experimental data taken from article PMC10572602, “Molecular Mechanism of STIL Coiled-Coil Domain Oligomerization” (International Journal of Molecular Sciences, 2023).
Read-outs that look alike come from different tables or passages of the source.

Assay type: physicochemical
Details: for Tm: CD 222 nm, Boltzmann fit
Excerpt: Next, we used circular dichroism (CD) spectroscopy to probe the secondary structures of these WT CCD peptide assemblies. […] The spectra all had minima at 208 and 222 nm indicative of largely α-helical structures. From the high-concentration spectra we estimated ≈47% helix. To compare how the stabilities of these helical assemblies changed with concentration, we followed the changes in MRE222 with temperature over the same concentration range (Figure 2D, Table S1). Sigmoidal curves indicative of cooperative unfolding were apparent at all concentrations, indicating a cooperatively folded, oligomeric species. […] The temperature-dependent CD measurements were performed to determine the oligomerization-dependent thermal stability of the CCD. […] CD spectra of the peptides were recorded using a J-810 spectropolarimeter (Jasco) in a 0.1 cm and 1 cm quartz cuvette for far-UV CD spectroscopy, in a spectral range of 190 nm to 260 nm. The buffer used in the CD measurements was 25 mM sodium phosphate buffer pH = 6.8 with ionic strength of 154 mM (adjected by NaCl). The thermal melting of all STIL CCD peptides were measured as described. The graphs were fitted to Boltzmann equation in order to generate the Tm. Normalization to mean residue ellipticity was performed. The 100% helicity was calculated (with normalization to the length of the peptide and the condition of the measurement) as MRE × 10^−3 of −38 (Deg × cm^2 × dmol^−1 × res^−1).

Substance “L SPDAYRF LTEQDRQ LRLEQAQ IQRLLEA QSL-NH2 [STIL CCD718–749 L736E, STIL CCD peptide with destabilising L736E mutation; PDB 8oyk]” has a Tm (5 µM, sodium phosphate pH 6.8) of 18±1 °C, a Tm (25 µM, sodium phosphate pH 6.8) of 17±2 °C and a Tm (50 µM, 25 mM sodium phosphate pH 6.8, 154 mM NaCl) of 10 ± 2 °C. For the same substance, the Tm (100 µM, sodium phosphate pH 6.8) was 12±1 °C and the “concentration dependence of Tm / thermal stability (in words)” value (pH 6.8) was “No detectable change in the Tm at different L736E concentrations”.
